Like-named read-outs stand apart in the source and are kept apart here. Non-standard residues stand in square brackets, D forms with d. No end group written: not given here. *: point of attachment. Farnesyl = CC(C)=CCC/C(C)=C/CC/C(C)=C/C*
How the values were obtained:
Assay type in all cases: biochemical
[1] = test system: protease of bovine liver microsomal membranes; test: Substrate kinetics/activity: formation of N-[3H]-AFC from peptide substrates by calf liver microsomal protease; set-up: key to substrate activity (Table 1, in words): Analogs referred to as inactive did not show detectable activity as substrate when used at concentration of 10mM and prolonged incubation time (16 hours); weakly active: Where marginal activity is noted, detectable activity is observed under prolonged incubation periods, but the activity is <5% that observer, with AFC-V-I-S; settings: for substrate activity for the protease (in words): calf liver microsomal preparation; for substrate activity (Table 1, in words): 10mM, prolonged incubation time (16 hours)
Protocol: Briefly, N-[^3 H]-Acetyl-S-farnesyl-L-cys-L-val-L-ile-L-ser or N-[^3 H]acetyl-S-farnesyl-(SEQ ID NO: 1) at a concentration of 10 μM was incubated with bovine liver microsomal membranes (preparation described below). Periodically, 50 μL aliquots were withdrawn from the incubation mixture and the reaction was quenched with 500μL of chloroform/methanol (1:1, v/v). N-[^3 H]-AFC was extracted after thoroughly mixing the mixture for 1 minute and extracting with chloroform. Phase separation was achieved by adding 500μL of 1M citric acid. The chloroform layer was evaporated under nitrogen, resuspended in hexane/isopropanol/TFA (85:15:0.1), and authentic AFC standard was added for detection at 210 nm. The sample was injected on a silica HPLC column (Dynamax 60A, Rainin, Woburn, Mass.) and eluted with the same solvent. Radioactivity was counted with an on-line Berthold (Nashua, N.H.) LB 506-C HPLC radioactivity monitor.
(§1) Measurement of Proteolytic Activity Bovine liver microsomes were prepared according to Walter et al. (Meth. Enzym. 96:84, 1983). Kinetic measurements were performed by incubating 0.2 mg/mL protein with peptide substrates in 200 mM HEPES buffer containing 100 mM NaCl and 5 mM MgCl2 at pH 7.4, all in a final volume of 50 μL. The peptide substrates were added in DMSO to a final concentration of 4% (v/v) at 37°. The enzymatic reaction was quenched at the appropriate time by the addition of 0.5 mL of chloroform/methanol (1/1, v/v). Phase separation was achieved by adding 0.5 mL 1M citric acid. The chloroform layer was separated and evaporated under nitrogen and the residue was dissolved in n-hexane/2-propanol/TFA containing cold AFC. The formation of the product ^3 H-AFC was followed by HPLC analysis at 210 nm according to Perez-Sala et al. (Proc. Nat'l Acad. Sci. USA 88:3043, 1991). The samples were injected onto a normal phase HPLC column (Dynamax 60, Rainin, Woburn, Mass.) connected to a model LB 506-C on-line radioactivity monitor (Berthold, Nashua, N.H.). The column was eluted with n-hexane/2-propanol/TFA [85:15:0.1 (v/v/v)] at 1.5 mL/min.
For these experiments the substrates were dissolved in DMSC and incubated with calf liver microsomal membranes (0.2 mg of protein/mL) (Walter et al., supra) as described above. The amount of radioactive product was determined as described above. The reaction was quenched with 500 μL of CHCl3 /MeOH (1:1, v/v), and the radioactive N-terminal amino acid, i.e. N-[^3 H]AFC, was extracted after thoroughly agitating this mixture. Phase separation was achieved by adding 500 μL of 1M citric acid. After the chloroform layer was evaporated under nitrogen the residue was resuspended in n-hexane/isopropanol/TFA (90:10:0.01) and non-radioactive AFC was added as a standard for UV detection (210 nm). The sample was injected on a normal-phase HPLC column (Dynamax 60A, Rainin), and elution was performed with the same solvent at flow rate l.5 ml/min. Radioactivity was counted with an on-line Berthold (Nashua, NH) LB 506-C HPLC radioactivity monitor. The limit of efficiency of this assay was 3× the background counts/min (~150 cpm), which permits detection of products from substrates whose activities are 0.4% of the Vmax of AFC-Val-Ile-Ser (SEQ ID NO: 1) (1.13 pmol/min/mg). The retention times for AGC, AFC, and AGGC are 7.58, 7.26, and 7.00 min respectively, and for AGC-Val-Ile, AFC-Val-Ile, and AGGC-Val-Ile, they are 5.48, 6.54, and 5.08 min respectively.

[2] = test system: proteolytic enzymatic activity in dog pancreatic microsomes; test: Proteolysis of tetrapeptide by dog pancreatic microsomes, extended incubation; settings: extended incubation conditions
Protocol: A similar stereospecific proteolytic enzymatic activity was also found in dog pancreatic microsomes. Under extended incubation conditions, where 54% of the tetrapeptide substrate 1 was cleaved by these microsomes, no proteolysis of D-AFC-val-ile-ser 2 could be detectec, (<1%). […] Synthesis of N-[^3 H]-acetyl-S-all-trans-farnesyl-L-Cys-L-Val-L-Ile-L-Ser or N-[^3 H]acetyl-S-farnesyl-(SEQ ID NO: 1) A solution of N-[^3 H]-acetyl-S-all-trans-farnesyl-L-Cys-L-Val-L-Ile (1.12 μmol, 250 mCi/mmol), L-serine hydrochloride methyl ester (20 mg, 0.13 mmol), and 1-hydroxybenzotriazole hydrate (17.4 mg, 0.13 mmol) in 3 mL of DMF was cooled to 0° C. 1-(3-Dimethylamino)propyl-3-ethyl carbodiimide hydrochloride (17.2 mg, 0.09 mmol) and N-methylmorpholine (14.1 μL, 13 mg, 0.13 mmol) were added at 0° C. The mixture was stirred at 0° C. under argon for 2 hours and at room temperature for 24 hours. Water (20 mL) was added and the mixture was extracted with ethyl acetate (4×20 mL). The combined organic layer was washed with 10% HCl, saturated sodium bicarbonate, and water, dried over anhydrous magnesium sulfate, filtered, and evaporated. The residue was dissolved in 3 mL of acetonitrile and 3 mL of 10% aqueous sodium carbonate was added. The mixture was stirred at room temperature for 24 h. 10% HCl was added to adjust the pH to 2. […] Recovery of radioactivity was 28.2 μCi, 1.13×10^-4 mmol. […]

[3] = test system: protease of bovine liver microsomal membranes; test: Inhibition of proteolysis of [3H]-AFC-val-ile-ser by calf liver microsomal protease; settings: 4 μM [3H]-AFC-val-ile-ser substrate; 20 μM of the dipeptide or tripeptide
Protocol: as §1
As expected, the proteolysis of [^3 H]-AFC-val-ile-ser or N-[^3 H]-(SEQ ID NO: 1) was inhibited by the dipeptide substrate (AFC-val) and by the tripeptide substrate (AFC-val-ile). […]

[4] = Table 1, substrate of the protease, calf liver microsomal membranes, average of two determinations ±S.D., same enzyme preparation
[5] = Table 1, substrate of the protease, calf liver microsomal membranes, average of two determinations ±S.D., same enzyme preparation, read-out: KM
[6] = substrate of the protease, liver microsomal membranes, read-out: KM

Compound	substrate activity for the protease (in words) [1]	substrate activity (Table 1, in words) ([1]; Table 1)	further results
CC(=O)N[C@@H](CSC/C=C(\C)CC/C=C(\C)CCC=C(C)C)C(N)=O [AFC amide]	not a substrate	–	–
N-Ac-S-all-trans-farnesyl-D-Cys-L-Val-L-Ile [AFC-Val-Ile (6)]	–	inactive	–
N-[^3 H]-Acetyl-L-Cys-L-Val-L-Ile [Cys-Val-Ile (4)]	Neither analog was measurably processed	inactive	–
N-[^3 H]-Acetyl-S-all-trans-geranylgeranyl-D-cys-L-Val-L-Ile [AGGC-Val-Ile (2) D-L-L]	no measurable protease activity	inactive	–
N-[^3 H]-Acetyl-S-all-trans-geranylgeranyl-L-Cys-L-Val-L-Ile [AGGC-Val-Ile (2)]	good substrates	–	Vmax [1, 4]: 26.20 ± 0.97 pmol/min/mg; Km [1, 5]: 4.01 ± 0.4 µM; Vmax ([1]; substrate of the protease): 19.35 pmol/min/mg; Km [1, 6]: 14.6 µM
N-[^3 H]-Acetyl-S-thio-t-butyl-L-Cys-L-Val-L-Ile [t-butylthio-Cys-Val-Ile (5)]	Neither analog was measurably processed	inactive	–
N-[^3 H]-acetyl-S-all-trans-farnesyl-D-Cys-L-Val-L-Ile-L-Ser [D-AFC-val-ile-ser]	did not occur	–	tetrapeptide cleaved [2]: < 1%
N-[^3 H]-acetyl-S-all-trans-farnesyl-L-Cys-L-Val-D-Ile [AFC-Val-Ile (8)]	did not have substrate activity	inactive	–
N-[^3 H]-acetyl-S-all-trans-farnesyl-L-Cys-L-Val-L-Ile-D-Met ({(3H)‑acetyl}-C(Farnesyl)VI[dM]) [AFC-Val-Ile-Met (10)]	processed to some extent	weakly active (Where marginal activity is noted, detectable activity is observed under prolonged incubation periods, but the activity is <5% that observer, with AFC-V-I-S)	–
N-[^3 H]-acetyl-S-all-trans-farnesyl-L-Cys-L-Val-L-Ile-L-Met (C(Farnesyl)VIM; not fully specified (N-terminus); printed as N-[^3 H]-acetyl-S-all-trans-farnesyl-L-Cys-L-Val-L-Ile-L-Met; also: tritium label on the N-acetyl) [AFC-Val-Ile-Met (9)]	good substrate	–	Vmax [1, 4]: 126.3 pmol/min/mg; Km [1, 5]: 2.96 ± 0.35 µM
N-acetyl-S-all-trans-farnesyl-D-Cys-D-Val-L-Ile [D-D-L]	inactive	–	–
N-acetyl-S-all-trans-farnesyl-L-Cys-D-Val-L-Ile [AFC-Val-Ile (7)]	did not have substrate activity	inactive	–
N-acetyl-S-farnesyl-L-cysteine-L-val-L-ile-L-ser [AFC-val-ile-ser]	–	–	Vmax ([1]; bovine liver microsomal membranes): 0.236 ± 0.008 nmol/min/mg protein; Km [1, 6]: 4.8 µM; tetrapeptide cleaved [2]: 54%
N-acetyl-S-trans-geranyl-D-Cys-L-Val-Ile [AGC-Val-Ile (3) D-L-L]	no measurable protease activity	inactive	–
N-acetyl-S-trans-geranyl-L-Cys-L-Val-L-Ile [AGC-Val-Ile (3)]	good substrates	–	Vmax [1, 4]: 19.35 ± 1.12 pmol/min/mg; Km [1, 5]: 14.6 ± 2.14 µM
acetyl-S-all-trans-farnesyl-L-Cys-Val-Ile [AFC-Val-Ile (1)]	–	–	Vmax [1, 4]: 57.7 ± 5 pmol/min/mg; Vmax, previously measured ([1]; former measurement on a different microsome preparation from a different animal): 65.6 pmol/min/mg; Km ([1]; former measurement on a different microsome preparation from a different animal, read-out: KM, previously measured): 12.6 µM; Vmax ([1]; substrate of the protease): 58 ± 4.9 pmol/min/mg; Km [1, 6]: 9.2 ± 0.21 µM; diminution in substrate cleavage [3]: approximately 50%

— patent publication US5789541A, “Compounds for inhibition of proteolysis” (President and Fellows of Harvard College, priority 1995, dated 1998)
